US11198695B2, “Fused ring derivative having MGAT-2 inhibitory activity” (Shionogi & Co., Ltd., priority 2017, dated 2021)

biological target: recombinant human MGAT2 (Homo sapiens (Human), UniProt Q3SYC2); test: Measurement of human MGAT2 inhibitory activity; type: biochemical; conditions: read-out: IC50 (concentration exhibiting 50% enzyme inhibition), Table 52
Procedure: A full-length human MGAT2 gene to which a Flag-tag had been added at the N-terminal was inserted into pFastBac (from Invitrogen). A recombinant baculovirus was produced in accordance with the protocol for a Bac-to-Bac baculovirus expression system (produced by Invitrogen), and Sf-9 cells were infected therewith. The cells were collected and sonicated, and then the membrane fraction was collected through centrifugation. Western blotting analysis with an anti-Flag antibody was performed for the membrane fraction to confirm expression, and the membrane fraction was used as a recombinant human MGAT2 enzyme solution.
Solutions of the compounds of the present invention in DMSO were each aliquoted into 0.2-μL portions in a 384-well polystyrene microplate produced by Corning Incorporated, and 5 μL of an enzyme solution prepared with an assay buffer (100 mmol/L phosphate buffer (pH 7.4) containing 2 mmol/L DTT) and 5 μL of a substrate solution (100 mmol/L phosphate buffer (pH 7.4), 30 μmol/L 2-Oleoylglycerol, 10 μmol/L Oleoyl-CoA) were added thereto, and the resultant was stirred and centrifuged, and incubated in a moist chamber at room temperature for 1 hour. After enzymatic reaction, 50 μL of a quenching solution (containing 0.2 μmol/L Diolein-d5, 0.4% formic acid, and 50% isopropanol) containing Internal Standard (IS) was added to terminate the reaction, and the resultant was sealed in a plate produced by Shimadzu GLC Ltd., and then stirred and centrifuged, and measurement was performed by using an electrospray ionization method with a RapidFire360 and Agilent 6550 Q-TOF mass spectrometer. Diolein as a reaction product (P) of 2-Oleoylglycerol as the substrate and an ammonium adduct ion of the IS were detected, and the peak intensity ratio, P/IS, was calculated from the peak heights to evaluate the inhibitory activity. Inhibitory activities with/without addition of enzyme were defined as Control (+)/Control (−), respectively, and the respective % inhibitions were defined as 0% inhibition and 100% inhibition. The inhibitory activity was calculated from formula below with TIBCO Spotfire (produced by TIBCO Software Inc.): Inhibitory activity (%)=[1−{Sample−Control(−)}/{Control(+)−Control(−)}]*100 where Sample indicates a peak intensity ratio: P/IS, when the compound of the present invention was added.

Sequence of recombinant human MGAT2 (Q3SYC2 whole entry): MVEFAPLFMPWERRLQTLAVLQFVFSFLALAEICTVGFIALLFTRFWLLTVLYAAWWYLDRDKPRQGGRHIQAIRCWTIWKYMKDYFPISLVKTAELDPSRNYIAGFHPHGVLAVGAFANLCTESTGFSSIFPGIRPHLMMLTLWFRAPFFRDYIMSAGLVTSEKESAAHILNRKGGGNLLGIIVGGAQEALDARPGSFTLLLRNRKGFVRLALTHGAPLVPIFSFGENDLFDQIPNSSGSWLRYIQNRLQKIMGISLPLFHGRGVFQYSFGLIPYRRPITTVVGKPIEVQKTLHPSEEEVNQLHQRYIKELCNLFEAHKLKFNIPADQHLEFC

Compound | IC50 [nM]
O=C(Nc1c2c(nn1CCC1CC1)C[C@]1(CCc3cc(OCC(F)(F)F)ccc31)NC2=O)c1cnccn1 [Compound I-217] | 89.5
CS(=O)(=O)CC(=O)Nc1c2c(nn1-c1ccc(C(F)(F)F)cc1)C[C@]1(CCc3cc(OCC(F)(F)F)ccc31)NC2=O [Compound I-95] | 5.1
O=C(NCc1c2c(nn1CCC1CC1)C[C@]1(CCc3cc(OCC(F)(F)F)ccc31)NC2=O)c1ncco1 [Compound I-150] | 100
COCCS(=O)(=O)NC(=O)c1c2c(nn1CCC1CC1)C[C@]1(CCc3cc(OCC(F)(F)F)ccc31)NC2=O [Compound I-112] | 44.5
CS(=O)(=O)CC(=O)Nc1c2c(nn1-c1ccc(F)cc1)C[C@]1(CCOc3cc(OCC(F)(F)F)ccc31)NC2=O [Compound I-182] | 2.5
CS(=O)(=O)CC(=O)Nc1c2c(nn1CCCC#N)C[C@]1(CCc3cc(OCCCC(F)(F)F)ccc31)NC2=O [Compound I-207] | 17.5
O=C1N[C@@]2(CCc3cc(OCC(F)(F)F)ccc32)Cc2nn(CCC3CC3)c(C(=O)NS(=O)(=O)CC3CC3)c21 [Compound I-116] | 260
O=C1N[C@@]2(CCc3cc(OCC(F)(F)F)ccc32)Cc2nn(CCC3CC3)c(C(=O)NS(=O)(=O)C3CCCC3)c21 [Compound I-113] | 810
CS(=O)(=O)CC(=O)Nc1c2c(nn1-c1ccc(C#N)cn1)C[C@]1(CCc3cc(F)cc(F)c31)NC2=O [Compound I-284] | 9.35
O=C(Nc1c2c(nn1CCC1CC1)C[C@]1(CCc3cc(OCC(F)(F)F)ccc31)NC2=O)c1ccncc1 [Compound I-80] | 16
CS(=O)(=O)CC(=O)Nc1c2c(nn1-c1cccc(C#N)c1)C[C@]1(CCc3cc(OCC(F)(F)F)ccc31)NC2=O [Compound I-245] | 530
CS(=O)(=O)CC(=O)Nc1c2c(nn1-c1ccc(C#N)cn1)C[C@]1(CCc3cc(N4CC(F)(F)C4)ccc31)NC2=O [Compound I-163] | 3.6
CS(=O)(=O)CC(=O)Nc1nn(CCC2CCCCC2)c2c1C(=O)N[C@@]1(CCc3cc(OCCCC(F)(F)F)ccc31)C2 [Compound I-65] | 660
CNC(=O)c1c2c(nn1CCC1CC1)C[C@]1(CCc3cc(OCCCC(F)(F)F)ccc31)NC2=O [Compound I-11] | 500
CS(=O)(=O)CC(=O)Nc1c2c(nn1CCC1CC1)C[C@]1(CCc3cc(NC(=O)CC(F)(F)F)ccc31)NC2=O [Compound I-198] | 67
O=C1N[C@@]2(CCc3cc(OCC(F)(F)F)ccc32)Cc2nn(CCC3CC3)c(-c3noc(=O)[nH]3)c21 [Compound I-186] | 7.6
O=C1N[C@@]2(CCc3cc(OCC(F)(F)F)ccc32)Cc2nn(CCC3CC3)c(C(=O)Nc3ccccc3)c21 [Compound I-196] | 1000
CC1(C(=O)NCc2c3c(nn2CCC2CC2)C[C@]2(CCc4cc(OCC(F)(F)F)ccc42)NC3=O)COC1 [Compound I-83] | 110
Cc1ccc(-n2nc3c(c2NC(=O)CS(C)(=O)=O)C(=O)N[C@@]2(CCc4cc(OCCCC(F)(F)F)ccc42)C3)cc1 [Compound I-42] | 2.5
CS(=O)(=O)CC(=O)Nc1c2c(nn1CCOC(F)(F)F)C[C@]1(CCc3cc(OCCCC(F)(F)F)ccc31)NC2=O [Compound I-60] | 94
CS(=O)(=O)CC(=O)Nc1c2c(nn1CCCC(F)(F)F)C[C@]1(CCc3cc(OCC(F)(F)F)ccc31)NC2=O [Compound I-193] | 6.1
CCOCCn1nc2c(c1NC(=O)CS(C)(=O)=O)C(=O)N[C@@]1(CCc3cc(OCC(F)(F)F)ccc31)C2 [Compound I-250] | 150
CC(=O)NCC(=O)Nc1c2c(nn1CCC1CC1)C[C@]1(CCc3cc(OCCCC(F)(F)F)ccc31)NC2=O [Compound I-28] | 435

same assay, conditions: read-out: IC50 (concentration exhibiting 50% enzyme inhibition), Table 53

Compound | IC50 [nM]
CS(=O)(=O)CC(=O)Nc1c2c(nn1CCC1CC1)C[C@@]1(CCc3cc(N4CC5(CCOCC5)C4)ccc31)NC2=O [II-36] | 53
CC(C)c1ccc(N2CC3(Cc4nn(-c5ccc(C#N)cn5)c(NC(=O)CS(C)(=O)=O)c4C(=O)N3)C2)cc1 [II-80] | 9.1
Cc1ccc(-n2nc3c(c2NC(=O)CS(C)(=O)=O)C(=O)N[C@@]2(CCOc4cc(OCC(F)(F)F)ccc42)C3)cc1F [II-248] | 1.8
N#Cc1ccc(-n2nc3c(c2C(=O)NS(=O)(=O)c2ccccc2)C(=O)N[C@@]2(CCc4cc(OCC(F)(F)F)ccc42)C3)nc1 [II-215] | 77
COCCNC(=O)c1c2c(nn1-c1ccc(C#N)cn1)C[C@]1(CCc3cc(OCC(F)(F)F)ccc31)NC2=O [II-125] | 63.5
Cc1ccc(-n2nc3c(c2C(=O)NS(=O)(=O)C2CC2)C(=O)N[C@@](c2ccc(OCC(F)(F)F)cc2F)(C(F)(F)F)C3)nc1 [II-274] | 6.67
CS(=O)(=O)CC(=O)Nc1c2c(nn1C1CCCCC1)C[C@]1(CCOc3cc(OCC(F)(F)F)ccc31)NC2=O [II-15] | 12
Cc1ccc(-n2nc3c(c2NC(=O)CS(C)(=O)=O)C(=O)N[C@@]2(CCc4cc(C5CC5)ccc42)C3)nn1 [II-302] | 3.61
N#Cc1ccc(-n2nc3c(c2C(=O)N[C@H]2C[C@H](O)C2)C(=O)N[C@@]2(CCc4cc(OCC(F)(F)F)ccc42)C3)nc1 [II-117] | 37.9
CS(=O)(=O)CC(=O)Nc1c2c(nn1-c1ccc(C#N)cn1)CC1(CN(C(=O)c3ccc(C(F)(F)F)cc3)C1)NC2=O [II-29] | 220
Cc1ccc(-n2nc3c(c2NC(=O)CS(C)(=O)=O)C(=O)N[C@@]2(CCc4cc(OCC(F)(F)F)ccc42)C3)cn1 [II-138] | 45.7
CS(=O)(=O)CC(=O)Nc1c2c(nn1CCCOC(F)(F)F)C[C@@]1(CCc3cc(CCC(F)(F)F)ccc31)NC2=O [II-284] | < 1
Cc1cc(-n2nc3c(c2NC(=O)CS(C)(=O)=O)C(=O)N[C@@]2(CCc4cc(C(F)(F)F)ccc42)C3)nn1C [II-278] | 5.92
Cc1ccc(-n2nc3c(c2NC(=O)CS(C)(=O)=O)C(=O)N[C@@]2(CCOc4cc(N5CC(F)(F)C5)ccc42)C3)nc1 [II-154] | 5.58
Cc1ccc(-n2nc3c(c2NC(=O)CS(C)(=O)=O)C(=O)N[C@](C)(c2ccc(Cl)cc2F)C3)nc1 [II-176] | 8.32
CS(=O)(=O)CC(=O)Nc1c2c(nn1CCC1CC1)C[C@]1(CCc3cc(OCC(F)(F)F)c(F)cc31)NC2=O [II-152] | 1.96
N#Cc1ccc(-n2nc3c(c2NC(=O)C2CS(=O)(=O)C2)C(=O)N[C@@]2(CCc4cc(OCC(F)(F)F)ccc42)C3)nc1 [II-72] | 3.69

Compound | IC50 [nM]
N#Cc1ccc(-n2nc3c(c2C(=O)NCC2(C#N)CC2)C(=O)N[C@@]2(CCc4cc(OCC(F)(F)F)ccc42)C3)nc1 [II-190] | 6.35
N#Cc1ccc(-n2nc3c(c2C(=O)NCC2(O)CCC2)C(=O)N[C@@]2(CCc4cc(OCC(F)(F)F)ccc42)C3)nc1 [II-108] | 2.51
CS(=O)(=O)CC(=O)Nc1c2c(nn1CCc1ccc(F)cc1)C[C@]1(CCOc3cc(OCC(F)(F)F)ccc31)NC2=O [II-28] | 8.7
CS(=O)(=O)CC(=O)Nc1c2c(nn1CCCOC(F)F)C[C@@]1(CCc3cc(OCC4CC(F)(F)C4)ccc31)NC2=O [II-291] | < 1
Cc1ccc(-n2nc3c(c2C(=O)NS(=O)(=O)CCC(F)(F)F)C(=O)N[C@@]2(CCc4cc(OCC(F)(F)F)ccc42)C3)nc1 [II-212] | 46.7
Cc1ccc(-n2nc3c(c2NC(=O)C2(S(C)(=O)=O)CC2)C(=O)N[C@@]2(CCOc4cc(OCC(F)(F)F)ccc42)C3)nc1 [II-272] | 210
O=C1N[C@]2(CCc3cc(OCC(F)(F)F)ccc32)Cc2nn(CCC3CC3)c(CNc3ccnc(O)n3)c21 [II-69] | 43.9
N#Cc1ccc(-n2nc3c(c2C(=O)NCC2(O)COC2)C(=O)N[C@@]2(CCc4cc(OCC(F)(F)F)ccc42)C3)nc1 [II-118] | 6.26
CS(=O)(=O)CC(=O)Nc1c2c(nn1CCC1CC1)C[C@@]1(CCc3cc(OCCOCC(F)(F)F)ccc31)NC2=O [II-100] | 4.76
Cc1cc(-n2nc3c(c2NC(=O)CS(C)(=O)=O)C(=O)N[C@@]2(CCc4cc(Cl)ccc42)C3)nn1C [II-306] | 11.3
Cc1ccc(-n2nc3c(c2NC(=O)CS(C)(=O)=O)C(=O)N[C@@]2(CCc4cc(OC(C)C)ccc42)C3)nc1 [II-160] | 7.69
N#CCNC(=O)c1c2c(nn1-c1ccc(C#N)cn1)C[C@@]1(CCc3cc(OCC(F)(F)F)ccc31)NC2=O [II-243] | 1.74
Cc1ccc(-n2nc3c(c2C(=O)NCC(F)(F)F)C(=O)N[C@@]2(CCOc4cc(OCC(F)(F)F)ccc42)C3)nc1 [II-227] | 96.4
CS(=O)(=O)CC(=O)Nc1c2c(nn1-c1ccon1)C[C@]1(CCc3cc(OCC(F)(F)F)ccc31)NC2=O [II-107] | 40.7
CS(=O)(=O)CC(=O)Nc1c2c(nn1CCCOC(F)(F)F)C[C@@]1(CCc3cc(OCC(F)(F)F)ccc31)NC2=O [II-20] | 1.56
CC(C)(F)COc1ccc2c(c1)CC[C@@]21Cc2nn(CCCOC(F)(F)F)c(NC(=O)CS(C)(=O)=O)c2C(=O)N1 [II-236] | 5.34
